Marks after values point to notes of the source that are not given here. In the oligonucleotide strings, read from the 5' end, every base follows the letter of its sugar. An asterisk marks phosphorothioate; unmarked linkages are phosphodiester. Other units and linkages are bracketed, terminal groups are in braces. A string of capitals states the bases alone. e = 2'-O-(2-methoxyethyl) (MOE); [5mC] = 5-methylcytosine; d = 2'-deoxy (DNA)
Legend:
Type in all cases: in vivo
[1] = system: MDA-231 Breast Cancer Xenograft; assay: MDA-231 breast cancer xenograft tumor volume in mice; conditions: for Percent Reduction in Mean Tumor Volumes (observed): Breast MDA-231 Day 33, vs. Vehicle Control; for Percent Reduction in Mean Tumor Volumes (observed) / Mean Tumor Volume: ASO 50 mg/kg iv; for Mean Tumor Volume: in mm³
Protocol: (§1) Xenograft studies are carried out as described in Graff et al. (2005) Cancer Res. 65:7462-7469. Five million human cancer cells representing non-small cell lung cancer (line A549; ATCC, accession no. CCL-185), hormone refractory prostate cancer (line PC-3; ATCC, accession no. CRL-1435), and ER-/PR-HER2-breast cancer (line MDA-231; ATCC, accession no. HTB-26) are injected subcutaneously in the flank of 6-8 week old, athymic nude mice (Harlan, Indianapolis, Ind.) in a 1:1 mixture of serum-free growth medium and matrigel (Becton Dickinson, Bedford, Mass., catalogue #354234). Mice are monitored daily for palpable tumors.
(§2) When tumor volumes reach ˜50-100 mm^3, mice are randomized to treatment groups (Graff et al. (2007) J. Clin. Invest. 117:2638-48). Body weight is monitored each time tumors are measured.
(§3) For treatment, all mice are injected intravenously with the eIF-4E ASO in saline in a total volume of 200 μl. The ASO consists of the nucleotide sequence 5′-[…]-3′ (SEQ ID NO:1), in which every internucleoside linkage is a phosphorothioate linkage, nucleotides 1-5 and 16-20 reading from the 5′ end to the 3′ end each comprise a 2′-O-(2-methoxyethyl) sugar, nucleotides 6-15 are 2′-deoxynucleotides, every cytosine residue is a 5-methylcytosine, and which is in the form of a sodium salt. The mice are first injected with an initial loading dose of 50 mg/kg ASO for 3 consecutive days, followed by 50 mg/kg thrice weekly thereafter.
(§4) Taxotere® (docetaxel) dosing begins 8 days after the first ASO dose to allow time for reduction of eIF-4E protein expression. Mice are dosed with 2.5 or 10 mg/kg Taxotere® (Sanofi-Aventis) intraperitoneally (IP) in 1% ethanol in 5% dextrose water in a volume of 200 μl once weekly for 3 weeks.
(§5) Tumor volumes are calculated measuring the largest (L) and smallest (W) diameters with a caliper. The formula is: Volume=L×W^2×0.534. Tumor volume data are transformed to a log scale to equalize variance across time and treatment groups. The log volume data are analyzed with a two-way repeated measures analysis of variance by time and treatment using SAS PROC MIXED software (SAS Institute Inc, Cary, N.C.) using the spatial power covariance structure. Treatment groups are compared to the control group at each time point and overall. The data may be plotted as means and standard errors for each treatment group versus time. Additivity is assessed in two ways: (1) as an overall interaction effect between the ASO and Taxotere® in the repeated measures analysis, and (2) by using the Bliss Independence method on the final day of the study (C.I. Bliss (1939) Ann. Appl. Biol. 26:585-615). These two methods yield the same results.
(§6) The observed percent reductions in mean tumor volume at the conclusion of each study resulting from the various treatments are shown in Table 4. These are calculated as: […]
(§7) The “Expected if Additive” percent reductions in mean tumor volume shown in Table 4 are calculated using the Bliss Independence definition of additivity, as follows: […]

[2] = system: A549 Non-Small Cell Lung Cancer Xenograft; assay: A549 non-small cell lung cancer xenograft tumor volume in mice; parameters: key to Mean Tumor Volume: tumor volume in mm^3; conditions: ASO 50 mg/kg iv; for Mean Tumor Volume: in mm³; for Percent Reduction in Mean Tumor Volumes (observed): NSCLC A 549 Day 50, vs. Vehicle Control, Taxotere 10 mg/kg IP
Protocol: as §1, §2, §3, §4, §5, §6, §7

[3] = system: PC-3 Hormone-Refractory Prostate Cancer Xenograft; assay: PC-3 hormone-refractory prostate cancer xenograft tumor volume in mice; conditions: ASO 50 mg/kg iv; for Mean Tumor Volume: in mm³; for Percent Reduction in Mean Tumor Volumes (observed): Prostate PC3 Day 35, vs. Vehicle Control
Protocol: as §1, §2, §3, §4, §5, §6, §7

[4] = Day 5, Taxotere 2.5 mg/kg IP once weekly from 8 days after first ASO dose, tumor volumes in mm^3
[5] = Day 7, docetaxel 10 mg/kg IP once weekly from 8 days after first ASO dose, tumor volumes in mm^3
[6] = Day 7, Taxotere 10 mg/kg IP once weekly from 8 days after first ASO dose, tumor volumes in mm^3

Molecule: CC(=O)O[C@@]12CO[C@@H]1C[C@H](O)[C@@]1(C)C(=O)[C@H](O)C3=C(C)[C@@H](OC(=O)[C@H](O)[C@@H](NC(=O)OC(C)(C)C)c4ccccc4)C[C@@](O)([C@@H](OC(=O)c4ccccc4)[C@H]21)C3(C)C [Docetaxel, (2R,3S)—N-carboxy-3-phenylisoseine,N-tert-butyl ester, 13-ester with 5β-20-epoxy-1,2α,4,7β,10β,13α-hexahydroxytax-11-en-9-one 4-acetate 2-benzoate, trihydrate, reference compound]
- Percent Reduction in Mean Tumor Volumes (observed) ([1]; Taxotere 2.5 mg/kg IP): −1.4%
- Mean Tumor Volume [1, 4]: 78.7
- Mean Tumor Volume ([1]; Day 8, Taxotere 2.5 mg/kg IP): 130.1
- Mean Tumor Volume ([1]; Day 12, Taxotere 2.5 mg/kg IP): 180.9
- Mean Tumor Volume ([1]; Day 15, Taxotere 2.5 mg/kg IP): 221.0
- Mean Tumor Volume ([1]; Day 19, Taxotere 2.5 mg/kg IP): 270.3
- Mean Tumor Volume ([1]; Day 22, Taxotere 2.5 mg/kg IP): 333.9
- Mean Tumor Volume ([1]; Day 26, Taxotere 2.5 mg/kg IP): 384.9
- Mean Tumor Volume ([1]; Day 29, Taxotere 2.5 mg/kg IP): 450.4
- Mean Tumor Volume ([1]; Day 33, Taxotere 2.5 mg/kg IP): 529.6
- Mean Tumor Volume [2, 5]: 49.7
- Mean Tumor Volume ([2]; Day 10, docetaxel 10 mg/kg IP): 56.7
- Mean Tumor Volume ([2]; Day 15, docetaxel 10 mg/kg IP): 114.8
- Mean Tumor Volume ([2]; Day 18, docetaxel 10 mg/kg IP): 70.0
- Mean Tumor Volume ([2]; Day 22, docetaxel 10 mg/kg IP): 135.8
- Mean Tumor Volume ([2]; Day 25, docetaxel 10 mg/kg IP): 170.1
- Mean Tumor Volume ([2]; Day 29, docetaxel 10 mg/kg IP): 257.0
- Mean Tumor Volume ([2]; Day 32, docetaxel 10 mg/kg IP): 261.5
- Mean Tumor Volume ([2]; Day 36, docetaxel 10 mg/kg IP): 290.0
- Mean Tumor Volume ([2]; Day 39, docetaxel 10 mg/kg IP): 282.3
- Mean Tumor Volume ([2]; Day 43, docetaxel 10 mg/kg IP): 342.6
- Mean Tumor Volume ([2]; Day 46, docetaxel 10 mg/kg IP): 310.2
- Mean Tumor Volume ([2]; Day 50, docetaxel 10 mg/kg IP): 343.8
- Percent Reduction in Mean Tumor Volumes (observed) [2]: −29.6%
- Mean Tumor Volume [3, 6]: 46.3
- Mean Tumor Volume ([3]; Day 12, Taxotere 10 mg/kg IP): 106.8
- Mean Tumor Volume ([3]; Day 15, Taxotere 10 mg/kg IP): 134.7
- Mean Tumor Volume ([3]; Day 19, Taxotere 10 mg/kg IP): 164.8
- Mean Tumor Volume ([3]; Day 22, Taxotere 10 mg/kg IP): 171.7
- Mean Tumor Volume ([3]; Day 27, Taxotere 10 mg/kg IP): 157.4
- Mean Tumor Volume ([3]; Day 29, Taxotere 10 mg/kg IP): 162.7
- Mean Tumor Volume ([3]; Day 33, Taxotere 10 mg/kg IP): 161.6
- Mean Tumor Volume ([3]; Day 35, Taxotere 10 mg/kg IP): 167.0
- Percent Reduction in Mean Tumor Volumes (observed) ([3]; Taxotere 10 mg/kg IP): −69.5%*

Molecule: d(P-thio)([2′-O-(2-methoxyethyl)]m5rU-([2′-O-(2-methoxyethyl)]rG-([2′-O-(2-methoxyethyl)]m5rU-([2′-O-(2-methoxyethyl)]m5rC-([2′-O-(2-methoxyethyl)]rA-T-A-T-T-m5C-m5C-T-G-G-A-([2′-O-(2-methoxyethyl)]m5rU-([2′-O-(2-methoxyethyl)]m5rC-([2′-O-(2-methoxyethyl)]m5rC-([2′-O-(2-methoxyethyl)]m5rU-([2′-O-(2-methoxyethyl)]m5rU) (antisense eT*eG*eT*e[5mC]*eA*dT*dA*dT*dT*d[5mC]*d[5mC]*dT*dG*dG*dA*eT*e[5mC]*e[5mC]*eT*eT) [eIF-4E ASO]
- Percent Reduction in Mean Tumor Volumes (observed) ([1]; Taxotere 2.5 mg/kg IP): +16.6%
- Mean Tumor Volume [1, 4]: 78.9
- Mean Tumor Volume ([1]; Day 8, Taxotere 2.5 mg/kg IP): 129.4
- Mean Tumor Volume ([1]; Day 12, Taxotere 2.5 mg/kg IP): 166.6
- Mean Tumor Volume ([1]; Day 15, Taxotere 2.5 mg/kg IP): 221.0
- Mean Tumor Volume ([1]; Day 19, Taxotere 2.5 mg/kg IP): 268.2
- Mean Tumor Volume ([1]; Day 22, Taxotere 2.5 mg/kg IP): 356.3
- Mean Tumor Volume ([1]; Day 26, Taxotere 2.5 mg/kg IP): 435.9
- Mean Tumor Volume ([1]; Day 29, Taxotere 2.5 mg/kg IP): 574.1
- Mean Tumor Volume ([1]; Day 33, Taxotere 2.5 mg/kg IP): 626.2
- Effect on mean tumor volume (in words) ([1]; breast cancer model, ASO alone): non-statistically significant increase
- Mean Tumor Volume [2, 5]: 52.7
- Mean Tumor Volume ([2]; Day 10, docetaxel 10 mg/kg IP): 69.4
- Mean Tumor Volume ([2]; Day 15, docetaxel 10 mg/kg IP): 113.7
- Mean Tumor Volume ([2]; Day 18, docetaxel 10 mg/kg IP): 79.1
- Mean Tumor Volume ([2]; Day 22, docetaxel 10 mg/kg IP): 139.5
- Mean Tumor Volume ([2]; Day 25, docetaxel 10 mg/kg IP): 149.0
- Mean Tumor Volume ([2]; Day 29, docetaxel 10 mg/kg IP): 220.1
- Mean Tumor Volume ([2]; Day 32, docetaxel 10 mg/kg IP): 249.5
- Mean Tumor Volume ([2]; Day 36, docetaxel 10 mg/kg IP): 256.6
- Mean Tumor Volume ([2]; Day 39, docetaxel 10 mg/kg IP): 239.1
- Mean Tumor Volume ([2]; Day 43, docetaxel 10 mg/kg IP): 313.2
- Mean Tumor Volume ([2]; Day 46, docetaxel 10 mg/kg IP): 292.3
- Mean Tumor Volume ([2]; Day 50, docetaxel 10 mg/kg IP): 404.0
- Percent Reduction in Mean Tumor Volumes (observed) [2]: −17.3%
- Mean Tumor Volume [3, 6]: 49.8
- Mean Tumor Volume ([3]; Day 12, Taxotere 10 mg/kg IP): 88.3
- Mean Tumor Volume ([3]; Day 15, Taxotere 10 mg/kg IP): 130.3
- Mean Tumor Volume ([3]; Day 19, Taxotere 10 mg/kg IP): 159.0
- Mean Tumor Volume ([3]; Day 22, Taxotere 10 mg/kg IP): 218.8
- Mean Tumor Volume ([3]; Day 27, Taxotere 10 mg/kg IP): 294.5
- Mean Tumor Volume ([3]; Day 29, Taxotere 10 mg/kg IP): 343.9
- Mean Tumor Volume ([3]; Day 33, Taxotere 10 mg/kg IP): 424.0
- Mean Tumor Volume ([3]; Day 35, Taxotere 10 mg/kg IP): 491.2
- Percent Reduction in Mean Tumor Volumes (observed) ([3]; Taxotere 10 mg/kg IP): −10.2%
